Source: patent US20100292266A1, “Oxazolyl Piperidine Modulators of Fatty Acid Amide Hydrolase” (priority 2006, published 2010)

What was measured:
Rat FAAH = target: T1, Rat FAAH (Rattus norvegicus, UniProt P97612); test: Assay Method 2: FAAH assay, 3H-anandamide hydrolysis in cell homogenate; type: biochemical; settings: transfected SK-N-MC cell homogenate, 80 nM 3H-AEA, 1 h rt, > = solubility limit or highest concentration tested
T1 construct: expressed in transfected cells
T1 sequence (P97612 1-579): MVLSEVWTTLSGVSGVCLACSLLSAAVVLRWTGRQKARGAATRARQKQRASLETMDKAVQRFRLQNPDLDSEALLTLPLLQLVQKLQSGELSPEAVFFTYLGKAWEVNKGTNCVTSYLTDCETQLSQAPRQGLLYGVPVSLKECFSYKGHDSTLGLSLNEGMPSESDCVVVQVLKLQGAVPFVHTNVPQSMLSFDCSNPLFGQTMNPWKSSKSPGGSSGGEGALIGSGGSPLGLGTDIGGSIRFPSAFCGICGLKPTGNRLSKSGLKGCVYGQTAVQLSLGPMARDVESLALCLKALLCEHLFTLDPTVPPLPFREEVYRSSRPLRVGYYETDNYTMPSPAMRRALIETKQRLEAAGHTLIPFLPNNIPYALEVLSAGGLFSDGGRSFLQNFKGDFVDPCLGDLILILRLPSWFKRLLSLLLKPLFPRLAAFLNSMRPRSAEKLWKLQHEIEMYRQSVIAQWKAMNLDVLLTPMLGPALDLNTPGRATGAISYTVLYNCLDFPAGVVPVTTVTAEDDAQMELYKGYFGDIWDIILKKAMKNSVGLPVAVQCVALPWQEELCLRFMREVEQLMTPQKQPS
Procedure: A. Transfection of Cells with Rat FAAH
(§1) A 10-cm tissue culture dish with a confluent monolayer of SK-N-MC cells was split 2 days (d) prior to transfection. Using sterile technique, the media was removed and the cells were detached from the dish by the addition of trypsin. One fifth of the cells were then placed onto a new 10-cm dish. Cells were grown in a 37° C. incubator with 5% CO2 in Minimal Essential Media Eagle with 10% Fetal Bovine Serum. After 2 d, cells were approximately 80% confluent. These cells were removed from the dish with trypsin and pelleted in a clinical centrifuge. The pellet was re-suspended in 400 μL complete media and transferred to an electroporation cuvette with a 0.4 cm gap between the electrodes. Supercoiled rat FAAH cDNA (1 μg) was added to the cells and mixed. The voltage for the electroporation was set at 0.25 kV, and the capacitance was set at 960 μF. After electroporation, the cells were diluted into complete media (10 mL) and plated onto four 10-cm dishes. Because of the variability in the efficiency of electroporation, four different concentrations of cells were plated. The ratios used were 1:20, 1:10, and 1:5, with the remainder of the cells being added to the fourth dish. The cells were allowed to recover for 24 h before adding the selection media (complete media with 600 μg/mL G418). After 10 d, dishes were analyzed for surviving colonies of cells. Dishes with well-isolated colonies were used. Cells from individual colonies were isolated and tested.
(§2) The assay mixture consisted of 50 μL of the cell homogenate, 10 μL of the test compound, and 40 μL of anandamide [1-^3H-ethanolamine] (^3H-AEA, Perkin-Elmer, 10.3 Ci/mmol), which was added last, for a final tracer concentration of 80 nM. The reaction mixture was incubated at it for 1 h. During the incubation, 96-well Multiscreen filter plates (catalog number MAFCNOB50; Millipore, Bedford, Mass., USA) were loaded with 25 μL of activated charcoal (Multiscreen column loader, catalog number MACL09625, Millipore) and washed once with 100 μL of MeOH. Also during the incubation, 96-well DYNEX MicroLite plates (catalog number NL510410) were loaded with 100 μL of MicroScint40 (catalog number 6013641, Packard Bioscience, Meriden, Conn., USA). After the 1 h incubation, 60 μL of the reaction mixture were transferred to the charcoal plates, which were then assembled on top of the DYNEX plates using Centrifuge Alignment Frames (catalog number MACF09604, Millipore). The unbound labeled ethanolamine . was centrifuged through to the bottom plate (5 min at 2000 rpm), which was preloaded with the scintillant, as described above. The plates were sealed and left at rt for 1 h before counting on a Hewlett Packard TopCount.
(§3) Where activity is shown as greater than (>) a particular value, the value is the solubility limit of the compound in the assay medium or the highest concentration tested in the assay.

FAAH = target: T2, FAAH (Homo sapiens, UniProt O00519); test: Assay Method 1: FAAH assay, 3H-anandamide hydrolysis in cell homogenate; type: biochemical; design: expressed in transfected cells; settings: T84 or transfected SK-N-MC cell homogenate, 80 nM 3H-AEA, 1 h rt, > = solubility limit or highest concentration tested
T2 sequence (O00519 1-579): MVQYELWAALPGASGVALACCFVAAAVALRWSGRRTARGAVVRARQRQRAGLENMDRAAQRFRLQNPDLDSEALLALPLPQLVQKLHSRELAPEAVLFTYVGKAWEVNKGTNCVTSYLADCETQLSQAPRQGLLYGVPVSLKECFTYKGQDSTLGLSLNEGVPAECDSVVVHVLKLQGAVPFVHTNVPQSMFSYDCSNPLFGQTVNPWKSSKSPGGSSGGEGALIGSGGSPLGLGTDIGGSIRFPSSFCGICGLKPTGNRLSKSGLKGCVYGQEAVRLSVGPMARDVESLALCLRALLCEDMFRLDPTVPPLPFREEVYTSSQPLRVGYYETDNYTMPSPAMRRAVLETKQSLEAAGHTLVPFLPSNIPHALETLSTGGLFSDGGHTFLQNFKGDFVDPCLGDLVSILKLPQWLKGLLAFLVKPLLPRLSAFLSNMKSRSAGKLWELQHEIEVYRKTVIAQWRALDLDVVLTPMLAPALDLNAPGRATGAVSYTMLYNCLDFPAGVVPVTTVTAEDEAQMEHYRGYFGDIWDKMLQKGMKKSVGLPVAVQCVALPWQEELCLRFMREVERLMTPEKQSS
Procedure: A. Transfection of Cells with Human FAAH
as §1, with “Supercoiled human” for “Supercoiled rat”
as §2, with “at rt” for “at it”, “ethanolamine” for “ethanolamine .”
as §3

IC50 (Rat FAAH) [nM]	IC50 (FAAH) [nM]	Structure (SMILES)
484	112	Cc1ccc(CN2CCC(C(=O)c3ncco3)CC2)cc1 [Example 64, [1-(4-Methyl-benzyl)-piperidin-4-yl]-oxazol-2-yl-methanone]
5	5	O=C(c1ncco1)C1CCN(Cc2ccc(Cl)c(Cl)c2)CC1 [Example 44, [1-(3,4-Dichloro-benzyl)-piperidin-4-yl]-oxazol-2-yl-methanone]
7000	3000	O=C(c1ncco1)C1CCN(Cc2ccccc2)CC1 [Example 89, (1-Benzyl-piperidin-4-yl)-oxazol-2-yl-methanone]
320	85	O=C(c1ncco1)C1CCN(Cc2ccccc2Br)CC1 [Example 53, [1-(2-Bromo-benzyl)-piperidin-4-yl]-oxazol-2-yl-methanone]
1300	244	COc1cccc(CN2CCC(C(=O)c3ncco3)CC2)c1 [Example 62, [1-(3-Methoxy-benzyl)-piperidin-4-yl]-oxazol-2-yl-methanone]
96	51	O=C(c1ncco1)C1CCN(Cc2cccc(C(F)(F)F)c2)CC1 [Example 18, Oxazol-2-yl-[1-(3-trifluoromethyl-benzyl)-piperidin-4-yl]-methanone]
> 10000	–	O=C(c1ncco1)C1CCN(Cc2cccnc2)CC1 [Example 59, Oxazol-2-yl-(1-pyridin-3-ylmethyl-piperidin-4-yl)-methanone]
–	118	CC(C)Oc1cccc(CN2CCC(C(=O)c3ncco3)CC2)c1 [Example 24, [1-(3-Isopropoxy-benzyl)-piperidin-4-yl]-oxazol-2-yl-methanone]
–	772	CCOc1ccc(CN2CCC(C(=O)c3ncco3)CC2)cc1 [Example 28, [1-(4-Ethoxy-benzyl)-piperidin-4-yl]-oxazol-2-yl-methanone]
–	200	CN(C)c1ccc(CN2CCC(C(=O)c3ncco3)CC2)cc1 [Example 20, [1-(4-Dimethylamino-benzyl)-piperidin-4-yl]-oxazol-2-yl-methanone]
> 10000	–	CC(c1ccccc1)N1CCC(C(=O)c2ncco2)CC1 (stereo not drawn) [Example 90, Oxazol-2-yl-[1-(1-phenyl-ethyl)-piperidin-4-yl]-methanone]
> 10000	–	O=C(c1ncco1)C1CCN(Cc2ccncc2)CC1 [Example 58, Oxazol-2-yl-(1-pyridin-4-ylmethyl-piperidin-4-yl)-methanone]

Second part, the molecule before the results:

Structure (SMILES)	IC50 (Rat FAAH) [nM]	IC50 (FAAH) [nM]
Cc1cccc(CN2CCC(C(=O)c3ncco3)CC2)n1 [Example 83, [1-(6-Methyl-pyridin-2-ylmethyl)-piperidin-4-yl]-oxazol-2-yl-methanone]	3000	640
COc1ccc2cc(CN3CCC(C(=O)c4ncco4)CC3)c(Cl)nc2c1 [Example 68, [1-(2-Chloro-7-methoxy-quinolin-3-ylmethyl)-piperidin-4-yl]-oxazol-2-yl-methanone]	511	294
CC(C)COc1ccc(CN2CCC(C(=O)c3ncco3)CC2)cc1 [Example 17, [1-(4-Isobutoxy-benzyl)-piperidin-4-yl]-oxazol-2-yl-methanone]	–	180
O=C(c1ncco1)C1CCN(Cc2ccc(OC3CCCCC3)cc2)CC1 [Example 21, [1-(4-Cyclohexyloxy-benzyl)-piperidin-4-yl]-oxazol-2-yl-methanone]	–	750
O=C(c1ncco1)C1CCN(S(=O)(=O)c2ccccc2Cl)CC1 [Example 6, [1-(2-Chloro-benzenesulfonyl)-piperidin-4-yl]-oxazol-2-yl-methanone]	–	5000
COc1cccc(C(=O)N2CCC(C(=O)c3ncco3)CC2)c1 [Example 7, [1-(3-Methoxy-benzoyl)-piperidin-4-yl]-oxazol-2-yl-methanone]	> 10000	–
O=C(c1ncco1)C1CCN(C(=O)c2ccccc2Cl)CC1 [Example 13, [1-(2-Chloro-benzoyl)-piperidin-4-yl]-oxazol-2-yl-methanone]	> 10000	–
COc1cccc(S(=O)(=O)N2CCC(C(=O)c3ncco3)CC2)c1 [Example 3, [1-(3-Methoxy-benzenesulfonyl)-piperidin-4-yl]-oxazol-2-yl-methanone]	–	8000
COc1ccc(S(=O)(=O)N2CCC(C(=O)c3ncco3)CC2)cc1 [Example 2, [1-(4-Methoxy-benzenesulfonyl)-piperidin-4-yl]-oxazol-2-yl-methanone]	> 10000	–
O=C(c1ncco1)C1CCN(C(=O)c2cccc(Cl)c2)CC1 [Example 12, [1-(3-Chloro-benzoyl)-piperidin-4-yl]-oxazol-2-yl-methanone]	–	9000
